Results taken from patent US20140121100A1, “COMPOSITIONS AND METHODS FOR ENHANCING PLANT GROWTH” (NOVOZYMES BIOAG A/S, priority 2012, published 2014).
Like-named read-outs stand apart in the source and are kept apart here.

Key:
[1] = test system: corn seedling growth; details: for Plant root dry weight / Plant shoot dry weight / Total plant dry weight / Chlorophyll content: 2 weeks after; for Chlorophyll content: SPAD chlorophyll meter; for Plant height: one wk after (8 days after planting)
Method: In a clear plastic bag (25 cm×25 cm), 100 gram seeds were treated with 1 ml of water (as control) and 1 mL of the 100, 200, and 500 mg/L treatment solutions separately and shaken vigorously. One day following treatment, seeds were planted in 6″ plastic pots containing sand:perlite 1:1 mix. There were 10 pots/treatment; each pot being a replicate. Plant height was measured 8 days after planting. Plant leaf greenness and final harvest were made 2 weeks after planting. Plant leaf greenness was measured using a SPAD chlorophyll meter (Spectrum Technology, USA).

[2] = test system: corn; details: GSH 100 mg/L seed treatment; petriplates, dark, 24° C., 7 days
Method: Instead of growing the seeds in a greenhouse, the seeds were grown in […] polystyrene petriplates (Fisherband) on 5⅜″ germination paper circle (Anchor Paper Co., Saint Paul, Mn) moistened with 12 ml distilled water. Four petriplates were prepared per treatment as 4 replicates. Petri plates were then placed in the dark in under-counter cabinets in the lab at 24° C. for 7 days. After 7 days, seedlings were removed from the cabinets, exposed to light, and their main roots severed and measured for various root parameters with WinRhizo root scanner (Regent Instruments Inc., WinRhizo Pro 2007). For all statistical analysis, student t-test was applied using JMPv.9 statistical software.

[3] = test system: corn seedling growth; experiment: Effect of GSH and LCO on corn seedling growth (greenhouse pots, WinRhizo); assay type: in vivo; details: seed treatment (LCO 10^−8M), harvested after 2 weeks
Method: LCO stock solution was prepared by dissolving LCO in 50:50 ethanol/water solvent. Seeds were then treated according to the protocols of Example 1. Seeds were planted 1 day after treatment in greenhouse under artificial lighting in 5'' plastic pots containing 1:1 sand/perlite mix. […] Plants were allowed to grow for 2 weeks and then harvested. A non-destructive harvest was made by washing sand/perlite soil mix under running tap water. After cleaning, each plant was placed on a clear plexiglass-tray containing enough water to spread the roots in liquid. The tray was then placed on the WinRhizo root scanner (Regent Instruments Inc., WinRhizo Pro 2007) for measurement.

[4] = test system: soybean; details: soybean roots; seed treatment; petriplates, dark, 24° C., 7 days
Method: (§1) Seeds of chickpea, cotton, pinto bean and soybean were treated according to the protocols of Example 1. One day after seed treatment, 10 seeds of each crop variety were plated in 150 mm×15 mm polystyrene petriplates (Fisherband) on 5⅜″ germination paper circle (Anchor Paper Co., Saint Paul, Mn) moistened with 12 ml distilled water. Four petriplates were prepared per treatment as 4 replicates. Petri plates were then placed in the dark in under-counter cabinets in the lab at 24° C. for 7 days. After 7 days, seedlings were removed from the cabinets, exposed to light, and their main roots severed and measured for various root parameters with WinRhizo root scanner (Regent Instruments Inc., WinRhizo Pro 2007). For all statistical analysis, student t-test was applied using JMPv.9 statistical software.

[5] = test system: chickpea; details: chickpea roots; seed treatment; petriplates, dark, 24° C., 7 days
Method: as §1

Compound: N[C@@H](CCC(=O)N[C@@H](CS)C(=O)NCC(=O)O)C(=O)O [GSH, glutathione]
- Plant root dry weight ([1]; GSH 100 mg/L seed treatment): 0.244a mg
- Plant shoot dry weight ([1]; GSH 100 mg/L seed treatment): 0.3111ab mg
- Total plant dry weight ([1]; GSH 100 mg/L seed treatment): 0.555a mg
- Chlorophyll content ([1]; GSH 100 mg/L seed treatment): 27.93a
- Plant height ([1]; GSH 100 mg/L seed treatment): 12.07a cm
- Plant root dry weight ([1]; GSH 200 mg/L seed treatment): 0.231ab mg
- Plant shoot dry weight ([1]; GSH 200 mg/L seed treatment): 0.3116ab mg
- Total plant dry weight ([1]; GSH 200 mg/L seed treatment): 0.542a mg
- Chlorophyll content ([1]; GSH 200 mg/L seed treatment): 27.55a
- Plant height ([1]; GSH 200 mg/L seed treatment): 11.91a cm
- Plant root dry weight ([1]; GSH 500 mg/L seed treatment): 0.266b mg
- Plant shoot dry weight ([1]; GSH 500 mg/L seed treatment): 0.339a mg
- Total plant dry weight ([1]; GSH 500 mg/L seed treatment): 0.565a mg
- Chlorophyll content ([1]; GSH 500 mg/L seed treatment): 27.83a
- Plant height ([1]; GSH 500 mg/L seed treatment): 11.66ab cm
- Length, Total [2]: 21.890a* cm
- Volume, Total [2]: 0.150a* cm^3
- Coleoptile Length [3]: 9.814b cm
- Coleoptile Surface area [3]: 1.789b cm^2
- Coleoptile Volume [3]: 0.236b cm^2
- Root Diameter [3]: 0.653a mm
- Root Length [3]: 150.89a cm
- Root Surface area [3]: 30.47a cm^2
- Root Volume [3]: 0.494a cm^2
- Length [4]: 146.373a cm
- Surface area [4]: 25.691a cm^2
- Length [5]: 94.671a cm
- Surface area [5]: 23.142a cm^2
